Where a name gives a salt, the structure may show the parent alone.
Molecule `CCN(CC)CCc1c[nH]c2ccc(NS(=O)(=O)c3ccc(Cl)s3)cc12` [Example 6, N-[3-(2-diethylaminoethyl)-1H-indol-5-yl]-5-chlorothiophene-2-sulphonamide] has a melting point of 180 to 181 °C.
`CCN(CC)CCc1c[nH]c2ccc(NS(=O)(=O)c3cc(Cl)cc(Cl)c3)cc12` [Example 4, N-[3-(2-diethylaminoethyl)-1H-indol-5-yl]-3,5-dichlorobenzenesulphonamide] showed a melting point of 168 to 170 °C.
In the case of `CN1CCC(c2c[nH]c3ccc(NS(=O)(=O)c4cccc5ccccc45)cc23)CC1` (as salt: HCl) [Example 13, N-[3-(1-methylpiperidin-4-yl)-1H-indol-5-yl]naphthalene-1-sulphonamide hydrochloride], the melting point is reported as 212 °C (dec.).
For `CCN(CC)CCc1c[nH]c2ccc(NS(=O)(=O)c3ccc4ccccc4c3)cc12` [Example 17, N-[3-(2-diethylaminoethyl)-1H-indol-5-yl]naphthalene-2-sulphonamide], the melting point was 172 to 173 °C.
In the case of `CCN(CC)CCc1c[nH]c2ccc(NS(=O)(=O)c3ccc(-c4ccccc4)cc3)cc12` [Example 5, N-[3-(2-diethylaminoethyl)-1H-indol-5-yl]-4-phenylbenzenesulphonamide], the melting point is reported as 161 to 163 °C.
`CN1CCC(c2c[nH]c3ccc(NS(=O)(=O)c4ccc(-c5ccccc5)cc4)cc23)CC1` [Example 15, N-[3-(1-methylpiperidin-4-yl)-1H-indol-5-yl]-4-phenylbenzenesulphonamide] showed a melting point of 247 to 248 °C.
`CN(C)CCc1c[nH]c2ccc(NS(=O)(=O)c3cccc4ccccc34)cc12` [Example 8, N-[3-(2-dimethylaminoethyl)-1H-indol-5-yl]naphthalene-1-sulphonamide] gave a melting point of 203 to 205 °C.
Molecule `CCN(CC)CCc1c[nH]c2ccc(NS(=O)(=O)c3sc4ccc(Cl)cc4c3C)cc12` [Example 1, N-[3-(2-diethylaminoethyl)-1H-indol-5-yl]-5-chloro-3-methylbenzo[b]thiophene-2-sulphonamide] has a melting point of 170 to 173 °C.
In the case of `CN1CCC(c2c[nH]c3ccc(NS(=O)(=O)c4cccc5cccnc45)cc23)CC1` [Example 16, N-[3-(1-methylpiperidin-4-yl)-1H-indol-5-yl]quinoline-8-sulphonamide], the melting point is reported as 280 °C (dec.).
Work on `Cc1c(S(=O)(=O)Nc2ccc3[nH]cc(CCN(C)C)c3c2)sc2ccc(Cl)cc12` [Example 7, N-[3-(2-dimethylaminoethyl)-1H-indol-5-yl]-5-chloro-3-methylbenzo[b]thiophene-2-sulphonamide] yielded a melting point of 226 to 227 °C.
In the case of `CCN(CC)CCc1c[nH]c2ccc(NS(=O)(=O)c3cccc4ccccc34)cc12` (as salt: HCl) [Example 3, Hydrochloride N-[3-(2-diethylaminoethyl)-1H-indol-5-yl]naphthalene-1-sulphonamide], the melting point is reported as 255 to 257 °C.
In the case of `CN1CCC(c2c[nH]c3ccc(NS(=O)(=O)c4ccc(Cl)s4)cc23)CC1` [Example 14, N-[3-(1-methylpiperidin-4-yl)-1H-indol-5-yl]-5-chlorothiophene-2-sulphonamide], the melting point is reported as 284 °C (dec.).

— patent US7105515B2, “Derivatives of sulphonamides, their preparation and use as medicaments” (Laboratories Del Dr. Esteve, S.A., priority 2001, dated 2006)
